Source: paper PMC12406681 (Antimicrobial Agents and Chemotherapy, 2025)
Where two headings read alike, the source gives them in different places.

What was measured:
Type in all cases: cell-based, La Crosse virus
LACV V27A mutant [1] = tested on: LACV V27A mutant
LACV D35G mutant [2] = tested on: LACV D35G mutant
LACV V27A mutant [3] = details: Vero cells; for Fold change (/original stock) / Fold change (/passage control): EC50 ratio; for EC50: mean ± SD
LACV D35G mutant [4] = details: Vero cells; for Fold change (/original stock) / Fold change (/passage control): EC50 ratio; for EC50: mean ± SD

SMILES: CC(C)N1CN(C2c3ccccc3CCc3ccccc32)n2cc(C(=O)O)c(=O)c(O)c2C1=O [CAPCA-1, carbamoyl pyridone carboxylic acid (CAPCA)-1]
- EC50 (LACV V27A mutant [1]): 4.63 ± 0.8 µM
- Fold change (/original stock) (LACV V27A mutant [1]): 4.87
- Fold change (/passage control) (LACV V27A mutant [1]): 7.12
- EC50 (LACV D35G mutant [2]): 12.9 ± 2.22 µM
- Fold change (/original stock) (LACV D35G mutant [2]): 13.57
- Fold change (/passage control) (LACV D35G mutant [2]): 19.83
- Fold change (/original stock) (LACV V27A mutant [3]): 12.91
- Fold change (/passage control) (LACV V27A mutant [3]): 7.03
- EC50 (LACV V27A mutant [3]): 5.55 ± 1.64 µM
- Fold change (/original stock) (LACV D35G mutant [4]): >46.51
- Fold change (/passage control) (LACV D35G mutant [4]): >25.32
- EC50 (LACV D35G mutant [4]): > 20 µM

SMILES: NC(=O)c1nc(F)c[nH]c1=O [T-705, favipiravir, reference compound]
- Fold change (/original stock) (LACV V27A mutant [3]): 1.17
- Fold change (/passage control) (LACV V27A mutant [3]): 1.01
- EC50 (LACV V27A mutant [3]): 44.3 ± 5.15 µM
- Fold change (/original stock) (LACV D35G mutant [4]): 1.51
- Fold change (/passage control) (LACV D35G mutant [4]): 1.30
- EC50 (LACV D35G mutant [4]): 57 ± 11.8 µM
